Measurements as given in the NIST ThermoML archive (doi:10.1016/j.jct.2014.06.023).

Settings: Buoyancy - hydrostatic balance with magnetic suspension - one sinker

CC [ethane]
Settings | mass density [kg/m3]
249.85 K, 2081.5 kPa, Liquid | 450.462
249.86 K, 2510.3 kPa, Liquid | 451.694
249.86 K, 2510.4 kPa, Liquid | 451.694
249.87 K, 2510.9 kPa, Liquid | 451.681
249.9 K, 1805.5 kPa, Liquid | 449.546
249.93 K, 1301 kPa, Liquid | 447.948
249.93 K, 1354.2 kPa, Liquid | 448.104
249.93 K, 1591.6 kPa, Liquid | 448.847
254.69 K, 1692.1 kPa, Liquid | 439.901
254.69 K, 2265.9 kPa, Liquid | 441.863
254.7 K, 2492.4 kPa, Liquid | 442.576
254.7 K, 2493.3 kPa, Liquid | 442.588
254.72 K, 114.93 kPa, Gas | 1.6547
254.72 K, 2013.5 kPa, Liquid | 440.937
254.73 K, 225.89 kPa, Gas | 3.2988
254.74 K, 1474.7 kPa, Gas | 26.843
254.75 K, 3109.9 kPa, Liquid | 444.464
254.76 K, 634.94 kPa, Gas | 9.817
254.76 K, 825.19 kPa, Gas | 13.1528
254.76 K, 1040.1 kPa, Gas | 17.2189
254.76 K, 1280.4 kPa, Gas | 22.2529
254.76 K, 1280.5 kPa, Gas | 22.2533
254.76 K, 2860.9 kPa, Liquid | 443.666
254.77 K, 423.98 kPa, Gas | 6.354
254.78 K, 3457.8 kPa, Liquid | 445.504
254.81 K, 2648.7 kPa, Liquid | 442.883
259.62 K, 933.39 kPa, Gas | 14.7341
259.62 K, 1174.9 kPa, Gas | 19.3302
259.62 K, 1700.9 kPa, Liquid | 429.637
259.62 K, 2698.9 kPa, Liquid | 433.539
259.63 K, 152.52 kPa, Gas | 2.1615
259.63 K, 358.5 kPa, Gas | 5.211
259.63 K, 550.88 kPa, Gas | 8.2159
259.63 K, 726.92 kPa, Gas | 11.1161
259.63 K, 1351.5 kPa, Gas | 23.0156
259.63 K, 1351.6 kPa, Gas | 23.0046
259.63 K, 1548.6 kPa, Gas | 27.5129
259.63 K, 2097.3 kPa, Liquid | 431.21
259.63 K, 2412.9 kPa, Liquid | 432.441
259.63 K, 3076.2 kPa, Liquid | 434.902
265.02 K, 505.8 kPa, Gas | 7.3166
265.06 K, 116.65 kPa, Gas | 1.6114
265.06 K, 279.98 kPa, Gas | 3.9405
265.06 K, 3532.6 kPa, Liquid | 425.483
265.07 K, 1811.5 kPa, Gas | 32.6652
265.07 K, 2278.6 kPa, Liquid | 419.942
265.07 K, 2962.8 kPa, Liquid | 423.046
265.08 K, 1404.5 kPa, Gas | 23.2391
265.08 K, 1612.3 kPa, Gas | 27.8016
265.08 K, 2073 kPa, Liquid | 418.96
265.08 K, 2322.7 kPa, Liquid | 420.14
265.08 K, 2963.1 kPa, Liquid | 423.044
265.08 K, 3081.3 kPa, Liquid | 423.536
265.08 K, 3090.5 kPa, Liquid | 423.579
265.09 K, 2565.3 kPa, Liquid | 421.145
265.09 K, 3539.3 kPa, Liquid | 425.459
265.1 K, 816.83 kPa, Gas | 12.3046
265.1 K, 1004.4 kPa, Gas | 15.548
265.1 K, 1199.4 kPa, Gas | 19.1462
265.1 K, 2730.8 kPa, Liquid | 421.962
